# Measurements published in patent publication US6881739B1, “Use of cortisol antagonists in the treatment of heart failure” (priority 1999, dated 2005).
# System: heart failure
# Test: Treatment of heart failure patients with ketoconazole (case observations, Examples 1 and 2)
# Assay type: in vivo, human
# Method: Also, moderate dyspnea and increased heart rate as well as an increase in liver size (indicative of fluid retention in the liver). Patient being treated for heart failure with lisinopril (Zestril®) Treatment: 400 mg of a racemate of the Cis-2S,4R and Cis-2R,4S isomers of ketoconazole (Fungoral™ tablets—Janssen-Cilag, Belgium) was administered at 10.00 pm every day for a 3 month period. Observations: Body weight reduced by 3.8 kg—attributable to a reduction in fluid retention. Heart rate fell from 72 beats/min to 62 beats/min. Reduction in liver size of 10% and a resulting reduction in liver transaminases • S-ASAT reduced from 0.44 to 0.30 μKat/L • S-ALAT reduced from 1.0 to 0.39 μKat/L Dyspnea, oedema of lower limbs and body fluid in the lungs reduced. Physical health as measured by a subnormal physical exercise test (Faggiano, P. et al. supra) improved by 15%.
# Patient being treated for heart failure with furosemid (40 mg/day)
# Treatment: As for Example 1.
# [1] = Subject 1, 400 mg daily for 3 months
# [2] = Subject 2, treatment as for Example 1
smiles,measurement,setting,value
CC(=O)N1CCN(c2ccc(OCC3COC(Cn4ccnc4)(c4ccc(Cl)cc4Cl)O3)cc2)CC1 (racemic) [ketoconazole],Body weight reduced by,"Subject 1 (on lisinopril), 400 mg at 10.00 pm every day for 3 months, attributable to reduced fluid retention",3.8 kg
same,Dose of co-administered lisinopril (Zestril) could be reduced,[1],half of original dose
same,"Dyspnea, oedema of lower limbs and body fluid in the lungs",[1],reduced
same,"Physical health as measured by a subnormal physical exercise test, improved by",[1],15%
same,Reduction in liver size,[1],10%
same,Heart rate after treatment,"Subject 1, 400 mg daily for 3 months, fell from 72 beats/min",62 beats/min
same,S-ASAT after treatment,"Subject 1, 400 mg daily for 3 months, reduced from 0.44",0.30 μKat/L
same,S-ALAT after treatment,"Subject 1, 400 mg daily for 3 months, reduced from 1.0",0.39 μKat/L
same,Body weight reduced by,"Subject 2 (on furosemid 40 mg/day), treatment as for Example 1",4.2 kg
same,"Dyspnea, oedema of lower limbs and body fluid in lungs",[2],reduced
same,"Physical health as measured by a subnormal physical exercise test, improved by",[2],20%
same,Reduction in liver size,[2],15%
same,Time from commencement of treatment until furosemid could be stopped,[2],≤ 6 weeks
same,Heart rate after treatment,"Subject 2, treatment as for Example 1, fell from 74 beats/min",60 beats/min
same,S-ASAT after treatment,"Subject 2, treatment as for Example 1, reduced from 0.58",0.32 μKat/L
same,S-ALAT after treatment,"Subject 2, treatment as for Example 1, reduced from 0.92",0.68 μKat/L
